Reference: patent US5002972A, “Compound and composition of substituted hexenoic acid derivatives useful for treating thromboxane A2 mediated diseases” (Shionogi & Co., Ltd., priority 1989, dated 1991)
pEC50, pIC50: −log10 of the molar value.

Key:
washed platelets [1] = experiment: Inhibitory effect on collagen-induced platelet aggregation (antagonistic activity), rat washed platelets; type: cell-based; settings: 0.05 h, collagen 4 μg/ml as inducer, light transmission 3 minutes after inducer, read-out: Inhibition for Platelet Aggregation IC50
Protocol: (§1) From the abdominal artery of a male rat (Sprague-Dowley, 8 weeks old) was collected 10 ml of blood with a plastic syringe containing 1.5 ml of ACD (85 mM of sodium citrate, 70 mM of citric acid, 110 mM of glucose) and 20 μg of prostaglandin E1. The blood is placed in a plastic test tube, shaken moderately turning and centrifuged for 10 minutes at 160×g to give platelet rich plasma (PRP). To the prepared PRP was added apyrase (25 μg/ml) and the mixture was layered on 40% bovine serum albumin. The resulting mixture is centrifuged at 1200×g for 25 minutes. The platelet pellets suspended in a small amount of a buffer (137 mM of NaCl, 2.7 mM of KCl, 1.0 mM of MgCl2, 3.8 mM of NaH2 PO4, 3.8 mM of Hepes, 5.6 mM of glucose, 0.035% of bovine serum albumin, pH 7.35) was applied on 10 ml of Sephaose 2B column and eluted with such a buffer to prepare washed platelets.
(§2) The platelet aggregation reaction was measured by an aggregometer (NKK HEMA TRACER 1 MODEL PAT-6A.6M, Niko bioscience). In a measuring cuvette was placed 245 μl of the washed platelets of which platelet concentration was adjusted to 5×10^5 / μl and set in the aggregometer. The adjusted washed platelet was stirred (1000 rpm) at 37° C. and 3.8 μl of 0.1M of CaCl2 was added thereto. One minute later, 0.5 μl of a solution of a test compound in dimethylsulfoxide was added and 2 minutes later, 1 μl of collagen (Collagen reagent Horm®, HORMON-CHEMIE Munchen GMBH, final concentration 4 μg/ml) as an inducer for platelet aggregation was added. The platelet aggregation was monitored with an aggregometer in terms of the increase and decrease in light transmission.
Concentration of 50% inhibition was calculated from the inhibitory rate of aggregation (this correspondes to light transmission of a sample which is measured at 3 minutes after the addition of a platelet aggregating inducer, provided that light transmissions of the washed platelets and the buffer samples are taken as 0% and 100%, respectively.)

washed platelets [2] = experiment: Partial agonistic activity (shape change of rat platelets); type: cell-based; settings: Platelet, decrease in light transmission by test compound itself, 50% of maximal agonistic activity of reference compound, read-out: Activity of Partial Agonist EC50
Protocol: as §1, §2
The measurement of partial agonistic activity was carried out according to the method shown for platelet aggregation. To the washed platelets was added 0.1M of CaCl2 and one minute later a test compound was added thereto. The decrease in light transmission caused by the test compound itself was measured to estimate the activity.

[3] = Acute toxicity, intravenous, mice; settings: mouse, in vivo, male SclddY mice, tail vein injection in saline, mortality within 24 hours, Probit method
Protocol: Male SclddY mice (4-weekage, 23-27 g) were used. Each experimental group consists of 5 animals. After injecting the test compound dissolved in saline into a tial vein, the mortality within 24 hours was obtained as an LD50 value by the Probit method.

Compound	pIC50 (washed platelets [1])	pEC50 (washed platelets [2])	LD50 at 24 h [3] [mg/kg]
O=C(O)CCC/C=C\[C@H]1[C@@H]2CC[C@@H](C2)[C@@H]1NS(=O)(=O)c1ccccc1 [Ia-c, (1R,2R,3S,4S)-sodium (5Z)-6-(3-phenylsulfonylaminobicyclo[2.2.1]hept-2-yl)-5-hexenoate]	8.22	< 6.00	237
Cc1ccc(S(=O)(=O)N[C@H]2[C@H]3CC[C@H](C3)[C@@H]2/C=C\CCCC(=O)O)cc1 [Ib-c, (1R,2R,3S,4S)-sodium (5Z)-6-[3-(p-tolylsulfonylamino)bicyclo[2.2.1]hept-2-yl]-5-hexenoate]	8.22	< 6.00	–
O=C(O)CCC/C=C\[C@H]1[C@@H]2CC[C@@H](C2)[C@@H]1NS(=O)(=O)c1ccc(O)cc1 [Ic-c, (1R,2R,3S,4S)-sodium (5Z)-6-[3-(4-hydroxyphenylsulfonylamino)bicyclo[2.2.1]hept-2-yl]-5-hexenoate]	8.22	6.82	–
O=C(O)CCC/C=C\[C@H]1[C@@H]2CC[C@@H](C2)[C@@H]1NS(=O)(=O)c1ccc(Br)cc1 [Id-c, (1R,2R,3S,4S)-sodium (5Z)-6-[3-(4-bromophenylsulfonylamino)bicyclo[2.2.1]hept-2-yl]-5-hexenoate]	8.30	6.89	–
O=C(O)CCC/C=C\[C@H]1[C@@H]2CC[C@@H](C2)[C@@H]1NS(=O)(=O)c1ccc(Cl)cc1 [Ie-c, (1R,2R,3S,4S)-sodium (5Z)-6-[3-(4-chlorophenylsulfonylamino)bicyclo[2.2.1]hept-2-yl]-5-hexenoate]	8.30	6.52	–
O=S(=O)(N[C@H]1[C@H]2CC[C@H](C2)[C@@H]1/C=C\CCCc1nnn[nH]1)c1ccccc1 [If-c, (1R,2R,3S,4S)-3-phenylsulfonylamino-2-[(1Z)-5-(5-tetrazolyl)-1-pentenyl]bicyclo[2.2.1]heptane]	8.40	< 6.00	209
Cc1ccc(S(=O)(=O)N[C@H]2[C@H]3CC[C@H](C3)[C@@H]2C/C=C\CCCC(=O)O)cc1 [Rf. Compd., reference compound]	8.70	9.00	–
